Among the test systems are UACC-257 melanoma; OVCAR-8 ovarian; HOP-92 NSCLC; K-562 leukemia; COLO 205 colon; SNB-75 CNS; HCT-116 colon; HCT-15 colon; TK-10 renal; HCC-2998 colon.
Holding throughout (assay): DTP human tumour cell line panel, 48 h

Broadly, the GI50 is the concentration that inhibits growth by half. One may read the TGI as the concentration at which net growth stops.

Each structure is given as a SMILES string. “And” between values parts separate entries of the source, which are not always exact repeats. Equal entries are not always repeated.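 Where inhibition never reached the appropriate level, the endpoint shown equals the highest concentration tested. Otherwise, values were interpolated linearly from a five-concentration, 48-hour dose response in 96-well plates. At the GI50, growth is halved. TGI: total growth inhibition.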

Consider `CSc1ccc(C2=NN(C(=O)c3ccc(F)cc3)C(c3ccc(F)cc3)C2)cc1` (stereo not drawn), for which the GI50 in the assay with UACC-257 melanoma is 14.7 µM; in the assay on OVCAR-8 ovarian, 13.5 µM; in the assay on HOP-92 NSCLC, 9.72 µM; in the assay with K-562 leukemia, 3.91 µM; with COLO 205 colon, 12.3 µM; with SNB-75 CNS, 13.1 µM. Moreover, the GI50 is 3.61 µM in the assay on HCT-116 colon, 5.39 µM in the assay on HCT-15 colon, 10.4 µM with TK-10 renal and 12.3 µM in the assay with HCC-2998 colon. Also, the TGI in the assay with UACC-257 melanoma was 28.3 µM; with OVCAR-8 ovarian, 28.9 µM; in the assay on HOP-92 NSCLC it was 24.6 µM; in the assay with K-562 leukemia it was 16.6 µM; with COLO 205 colon it was 25.6 µM; with SNB-75 CNS, 26 µM. Further, the total growth inhibition concentration (TGI) in the assay on HCT-116 colon is 12.7 µM; with HCT-15 colon, 20.5 µM; with TK-10 renal it was 22.8 µM; in the assay with HCC-2998 colon, 25.6 µM.
Take `CC(=O)c1cccc(N2COC(C)(C)c3nc4ccccc4n3C2)c1`: the concentration for total growth inhibition (TGI) in the assay with UACC-257 melanoma, in the assay on OVCAR-8 ovarian, in the assay on HOP-92 NSCLC, in the assay on K-562 leukemia, in the assay on COLO 205 colon and with SNB-75 CNS was > 100 µM in each case. The TGI with HCT-116 colon, with HCT-15 colon, in the assay with TK-10 renal and in the assay on HCC-2998 colon was > 100 µM in each case.
For the compound `CCN(CC)c1cc2c3c(c1)CCCN3CCC2`, the TGI in the assay on UACC-257 melanoma, with OVCAR-8 ovarian, with HOP-92 NSCLC, in the assay with K-562 leukemia, in the assay with COLO 205 colon and in the assay with SNB-75 CNS was > 10 µM in each case. Also, the TGI in the assay on HCT-116 colon, in the assay on HCT-15 colon, with TK-10 renal and with HCC-2998 colon was > 10 µM in each case.
As to `CCN1CCN(C(=O)[C@]23CC[C@@H](C)[C@H](C)[C@@H]2C2=CC[C@@H]4[C@@]5(C)C/C(=C/c6ccncc6)C(=O)C(C)(C)[C@@H]5CC[C@@]4(C)[C@]2(C)CC3)CC1`, the GI50 with UACC-257 melanoma is 1.84 µM; in the assay on OVCAR-8 ovarian, 2.26 µM; in the assay on HOP-92 NSCLC it was 1.14 µM; in the assay on K-562 leukemia, 2.47 µM; in the assay on COLO 205 colon, 2.11 µM; in the assay with SNB-75 CNS, 1.27 µM. Moreover, the figures for the GI50 with HCT-15 colon, with TK-10 renal and in the assay on HCC-2998 colon were 1.65 µM, 1.73 µM and 1.5 µM, respectively. Also, the TGI in the assay with UACC-257 melanoma came out at 3.92 µM; in the assay with OVCAR-8 ovarian, 5.75 µM; in the assay with HOP-92 NSCLC it was 2.51 µM; with K-562 leukemia, 7.25 µM; in the assay with COLO 205 colon, 5.62 µM; in the assay on SNB-75 CNS, 2.67 µM. In addition, the TGI in the assay on HCT-15 colon was found to be 3.35 µM; with TK-10 renal it was 3.31 µM; in the assay on HCC-2998 colon, 3.03 µM.
Take `CCOC(=O)C(Cc1c[nH]c2ccc(N)cc12)(NC(C)=O)C(=O)OCC`: the GI50 in the assay with UACC-257 melanoma is > 1000 µM; in the assay on OVCAR-8 ovarian, > 1000 µM; in the assay with HOP-92 NSCLC it was > 1000 µM; in the assay with K-562 leukemia, > 1000 µM; in the assay on COLO 205 colon, 849 µM; in the assay with SNB-75 CNS, > 1000 µM. The GI50 in the assay with HCT-116 colon, in the assay with HCT-15 colon, with TK-10 renal and with HCC-2998 colon was > 1000 µM throughout. In addition, the TGI in the assay with UACC-257 melanoma, with OVCAR-8 ovarian, in the assay with HOP-92 NSCLC, in the assay on K-562 leukemia, with COLO 205 colon and in the assay with SNB-75 CNS was > 1000 µM in each case. The TGI with HCT-116 colon, in the assay with HCT-15 colon, in the assay on TK-10 renal and with HCC-2998 colon was > 1000 µM throughout.
For the compound `CC(=O)N[C@H]1C=C[C@@H]2/C=C(C)/C=C/[C@@H](C)[C@H]([C@H](C)[C@H](O)[C@@H](C)NC(C)=O)OC(=O)/C=C/C=C(C)\C=C\[C@]2(C)C1`, the TGI in the assay with UACC-257 melanoma is 4.65 µM and 16.5 µM; with OVCAR-8 ovarian it was 4.65 µM and > 45 µM; in the assay with K-562 leukemia, 4.65 µM and > 45 µM; in the assay with COLO 205 colon it was 4.65 µM and 5.38 µM; in the assay on HCT-116 colon, 4.65 µM and > 45 µM; in the assay with HCT-15 colon, 4.65 µM and > 45 µM. Further, the results for the TGI with TK-10 renal and in the assay with HCC-2998 colon were 44.6 µM and > 45 µM, respectively. For the same compound, the GI50 in the assay with HOP-92 NSCLC was 0.00954 µM and 0.0045 µM; in the assay with K-562 leukemia, 0.0307 µM and 0.00538 µM; in the assay on COLO 205 colon, 0.0173 µM and 0.0045 µM; in the assay with SNB-75 CNS it was 0.00243 µM and 0.0045 µM; in the assay with HCT-116 colon, 0.00564 µM and 0.0045 µM; in the assay on HCT-15 colon, 0.0361 µM and 0.00939 µM. Besides, the GI50 is 0.00805 µM with TK-10 renal and 5.04 µM in the assay on HCC-2998 colon.
On to `ClCc1cccc(Cn2cnc3c(NC45CC6CC(CC(C6)C4)C5)ncnc32)c1`, for which the GI50 was 16 µM in the assay with UACC-257 melanoma; 17.8 µM in the assay with OVCAR-8 ovarian; 17.3 µM in the assay with HOP-92 NSCLC; 1.89 µM in the assay on K-562 leukemia; 20.5 µM in the assay with COLO 205 colon; 17.4 µM in the assay on SNB-75 CNS. Also, the GI50 in the assay on HCT-116 colon is 12.6 µM; with HCT-15 colon, 20.4 µM; with TK-10 renal it was 20.5 µM; in the assay on HCC-2998 colon, 16.7 µM. In addition, the TGI is 37.4 µM in the assay with UACC-257 melanoma; 50.8 µM in the assay on OVCAR-8 ovarian; 34.5 µM in the assay with HOP-92 NSCLC; 29.4 µM in the assay on K-562 leukemia; > 69.4 µM in the assay on COLO 205 colon; 43.1 µM in the assay on SNB-75 CNS. Moreover, the TGI was 30.4 µM with HCT-116 colon, 47.5 µM with HCT-15 colon, 44.7 µM in the assay on TK-10 renal and 32.2 µM in the assay on HCC-2998 colon.
With `O=C(Nc1cc(Cl)c(Cl)cc1Cl)C(=O)C1C=CCS1(=O)=O` (stereo not drawn), the total growth inhibition concentration (TGI) in the assay with UACC-257 melanoma, in the assay on OVCAR-8 ovarian, with HOP-92 NSCLC, with K-562 leukemia, in the assay on COLO 205 colon and in the assay on SNB-75 CNS was > 100 µM throughout. The TGI in the assay with HCT-116 colon, in the assay with HCT-15 colon, in the assay with TK-10 renal and in the assay on HCC-2998 colon was > 100 µM in each case.
`O=Cc1ccc(-c2cc(C=O)c(-c3cccs3)[nH]2)s1`: the GI50 in the assay with UACC-257 melanoma was > 100 µM; in the assay on OVCAR-8 ovarian, > 100 µM; with HOP-92 NSCLC it was > 100 µM; in the assay with K-562 leukemia, 77.5 µM; in the assay with SNB-75 CNS, 29.5 µM; in the assay on HCT-116 colon it was 64.2 µM. In addition, the figures for the GI50 in the assay on HCT-15 colon, in the assay on TK-10 renal and in the assay on HCC-2998 colon were 74.8 µM, 85 µM and 20.1 µM, respectively. For the same compound, the TGI in the assay on UACC-257 melanoma was 75 µM and > 100 µM; with OVCAR-8 ovarian it was 75 µM and > 100 µM; in the assay with HOP-92 NSCLC it was 75 µM and > 100 µM; with K-562 leukemia, 75 µM and > 100 µM; in the assay on COLO 205 colon, 75 µM and 88.6 µM; in the assay on SNB-75 CNS, 52.2 µM and > 100 µM. Further, the concentration for total growth inhibition (TGI) with HCT-116 colon is 75 µM and > 100 µM; in the assay on HCT-15 colon, 75 µM and > 100 µM; with TK-10 renal, 75 µM and > 100 µM; in the assay on HCC-2998 colon, 56.6 µM and > 100 µM.

For the origin of these results see PubChem BioAssay (NCI).
